# Test results taken from EP2823816A1, “Inhibitors of Neuropilin and use thereof for the treatment of Neuropilin-related diseases” (Tragex Pharma, priority 2013, dated 2015).
# Legend:
# HUVEC cells [1] = assay: WST-1 proliferation assay; type: cell-based; conditions: in vitro, Figure 1B
# Procedure: (§1) After observation of cells under the microscope, old media were removed and the adherent cells washed gently twice with PBS (Phosphate Buffer Saline, -Ca^2+, -Mg^2+, Lonza cat n°: 17-512F/12). All cells were detached with 3 ml of trypsin/EDTA (chelator of calcium and magnesium ions) (Lonza), incubated for 5 min at 37°C, and examined using a microscope to ensure that the cells were detached and floating. Then, 3 ml TNS (Trypsin Neutralizing Solution, Lonza, France, cat n° CC-5002) or of culture medium were added to inactivate the trypsin, and the cell suspension was transferred in a falcon tube and centrifuged for 7 min at 1400 rpm. The supernatant was removed and the cell pellet resuspended in […] of culture medium. 50 µL of this solution were transferred in 20 µL of isotonic solution and the cells were counted by count cellular (Beckman Coulter). […]
# The cell proliferation WST-1 assay is a colorimetric assay for the quantification of cell proliferation and viability, based on the enzymatic cleavage of the tetrazolium salt WST-1 added to the culture medium, to a water soluble colored formazan dye, detected by absorbance at 450 nm, by mitochondrial succinate-tetrazoliumreductase in viable cells. […]
# [2] = In vivo xenograft study, body weight; conditions: NOD-SCID IL-2Rγ-/- mice, both tested doses (10 or 50 mg/kg), oral gavage three times a week, Figure 5A
# Procedure: Female (NOD-SCID, IL-2Rγ^-/-) mice 5-6 weeks old were injected subcutaneously with MDA-MB-231 cells (5.10^6) at a single site on their right flanks. Tumors were allowed to grow to about 100 mm^3 before being pair-matched by tumor size into treatment groups (8 mice/group). One group was treated with vehicles (8 mice receiving cremofor 12.5%/ethanol 12.5%/ H2O), one group was treated with 10 mg/kg of the compound 1 of the invention (8 mice receiving compound 1 + cremofor 12.5%/ethanol 12.5%/ H2O), one group was treated with 50 mg/kg of the compound 1 of the invention (8 mice receiving compound 1+ cremofor 12.5%/ethanol 12.5%/ H2O). All groups received 3 times a week by oral gavages approximately 100 µL of a solution containing the compound 1 of the invention. Mice were weighed regularly to assess toxicity of the treatments and the tumors were measured with calipers (width x width x length x Pi/6) to determine tumor growth. Mice survival was assessed during the study and metastatic development was investigated in lung, spleen and liver.
# [3] = tested on: MDA-MB-231 + shRNA directed to NRP1; assay: Proliferation assay in shRNA-transfected cells; type: cell-based; conditions: Homo sapiens; inhibition of proliferation; clone MDA-MB-231 + shRNA directed to NRP1
# Excerpt: (§2) The cell proliferation WST-1 assay is a colorimetric assay for the quantification of cell proliferation and viability, based on the enzymatic cleavage of the tetrazolium salt WST-1 added to the culture medium, to a water soluble colored formazan dye, detected by absorbance at 450 nm, by mitochondrial succinate-tetrazoliumreductase in viable cells. An augmentation in enzyme activity will then lead to an increase in the amount of formazan dye formed, which directly correlates to the number of metabolically active cells in the culture.
# (§3) After an incubation period of 72 h, at day 4, were prepared the 19 mL medium with reagent WST-1 1mL ([…]). The medium was removed from the 96 microplate and 200 µL of solution WST-1/medium were added for each well. The cells were incubated at 37°C in a humidified atmosphere of 5% CO2 for 1h30 and the absorbance at 450-655 nm was measured by Microplate Manager 5.2 (Bio-Rad).
# (§4) The effect of compound 1 of the invention on cell proliferation was tested according to the proliferation assay hereinabove described, in MDA-MB-231 cancer cells transfected with shRNA directed to NRP1 or NRP2 or with control shRNA.
# [4] = tested on: MDA-MB-231 + control shRNA; assay: Proliferation assay in shRNA-transfected cells; type: cell-based; conditions: Homo sapiens; inhibition of proliferation; clone MDA-MB-231 + control shRNA
# Excerpt: as §2, §3, §4
# [5] = tested on: MDA-MB-231 + shRNA directed to NRP2; assay: Proliferation assay in shRNA-transfected cells; type: cell-based; conditions: Homo sapiens; inhibition of proliferation; clone MDA-MB-231 + shRNA directed to NRP2
# Excerpt: as §2, §3, §4
# ERY-1 = assay: WST-1 proliferation / cytotoxic test; type: cell-based; conditions: Homo sapiens, Chronic myeloid leukemia, wst-1 cytotoxic test, 72 h
# Procedure: (§5) After observation of cells under the microscope, old media were removed and the adherent cells washed gently twice with PBS (Phosphate Buffer Saline, -Ca^2+, -Mg^2+, Lonza cat n°: 17-512F/12). All cells were detached with 3 ml of trypsin/EDTA (chelator of calcium and magnesium ions) (Lonza), incubated for 5 min at 37°C, and examined using a microscope to ensure that the cells were detached and floating. Then, 3 ml TNS (Trypsin Neutralizing Solution, Lonza, France, cat n° CC-5002) or of culture medium were added to inactivate the trypsin, and the cell suspension was transferred in a falcon tube and centrifuged for 7 min at 1400 rpm. The supernatant was removed and the cell pellet resuspended in […] of culture medium. 50 µL of this solution were transferred in 20 µL of isotonic solution and the cells were counted by count cellular (Beckman Coulter). At day 0, 200 µL of cellular suspension (3.10^3 cells/well for the HUVEC cells, breast cancer cells (MDA-MB-231 1.10^4 cells/well, MDA-MB-468 2.10^4 cells/well,); cervical cancer cells (HeLa 5.000 cells/well); colon cancer cells (HCT-116 5.10^3 cells/well, HCT-29 1.1.10^4 cells/well); pancreas cancer cells (Panc-10.5 1.5.10^4 cells/well); brain cancer cells (U87 5.10^3 cells/well, SH-SYSY 8.10^4 cells/well); Lung cancer cells (A 549 1.10^4 cells/well, NCI-H460 1.10^4 cells/well); fibrosarcoma cells (HT 1080 8.10^3 cells/well); Burkitt's lymphoma cells (DAUDI 3.10^4 cells/well); acute lymphoblastic leukemia cells (CEM 3.10^4 cells/well); chronic myeloid leukemia cells (ERY 5.10^4 cells/well); mantle cell lymphoma (GRANTA 1.10^5 cells/well); B lymphoma cells (VAL 1.10^5 cells/well)) were then plated on 96 well plates and incubated at 37°C in a humidified atmosphere of 5% CO2 for 24 h.
# (§6) At day 1, the compound 1 of the invention was added at increasing concentrations (0.1 - 10 µM) in the wells and plates were incubated at 37°C in a humidified atmosphere of 5% CO2 for 72 h.
# as §2, §3
# Panc-10.5 = assay: WST-1 proliferation / cytotoxic test; type: cell-based; conditions: Homo sapiens, Pancreas, wst-1 cytotoxic test, 72 h
# Procedure: as §5, §6, §2, §3
# CEM = assay: WST-1 proliferation / cytotoxic test; type: cell-based; conditions: Homo sapiens, CCRF-CEM, Acute lymphoblastic leukemia, wst-1 cytotoxic test, 72 h
# Procedure: as §5, §6, §2, §3
# DAUDI = assay: WST-1 proliferation / cytotoxic test; type: cell-based; conditions: Homo sapiens, Burkitt's lymphoma, wst-1 cytotoxic test, 72 h
# Procedure: as §5, §6, §2, §3
# MDA-MB-231 cells = assay: Adhesion test (crystal violet); type: cell-based, human; conditions: in vitro, Figure 3A
# HUVEC cells [6] = assay: Adhesion test (crystal violet); type: cell-based; conditions: in vitro, Figure 1A
# Procedure: as §1
# After an incubation period of 72 h, the adherent cells were fixed with […] paraformaldehyde 3% for 15 min at room temperature. […] The microplate was stirred to obtain a homogenous solution and absorbance was quantified at 580 nm by Microplate Manager 5.2. The percentage of inhibition was calculated as follow: % inhibition = 100-[(DOsample/DOcontrol)*100]. […]
compound,measurement,setting,value
"CCOc1ccccc1NC(=O)c1ccc(C)c(S(=O)(=O)Nc2ccc(C)cc2)c1 [Compound 1, N-(2-ethoxyphenyl)-4-methyl-3-(N-(p-tolyl)sulfamoyl)benzamide]",proliferation of HUVEC cells,HUVEC cells [1],inhibited
same,body weight (toxicity),[2],no significant change in body weight
same,IC50,[3],9000 ± 80 nM
same,IC50,[4],800 ± 50 nM
same,IC50,[5],10000 ± 50 nM
same,IC50,ERY-1,200 ± 30 nM
same,IC50,Panc-10.5,500 ± 40 nM
same,IC50,CEM,100 ± 80 nM
same,IC50,DAUDI,500 ± 20 nM
same,adhesion of MDA-MB-231 cells,MDA-MB-231 cells,inhibits
same,adhesion of HUVEC cells,HUVEC cells [6],inhibited
